Results published in article PMC5656836, “Distinct activation mechanisms trigger the trypanocidal activity of DNA damaging prodrugs” (Molecular Microbiology, 2017).
“Also recorded” adds a separate entry of the source. Where two headings read alike, the source gives them in different places.

Tests used:
[1] = test system: bloodstream form T. brucei; experiment: Growth inhibition of wild type / control bloodstream form T. brucei (resazurin); format: cell-based; conditions: for EC50: Trypanosoma brucei
T. cruzi epimastigotes = experiment: Growth inhibition of T. cruzi epimastigotes (resazurin); format: cell-based; conditions: for EC50: Trypanosoma cruzi, 336 h, epimastigotes, 14 days, read-out: T. cruzi EC50
L. major promastigotes = experiment: Growth inhibition of L. major promastigotes (resazurin); format: cell-based; conditions: for EC50: Leishmania major, 144 h, promastigotes, 6 days, read-out: L. major EC50
[2] = test system: differentiated THP‐1 cells; experiment: Mammalian inhibition assay, differentiated THP-1 cells; format: cell-based; conditions: Homo sapiens, 72 h; differentiated THP‐1 cells, 3 days; read-out: THP‐1 EC50
[3] = test system: mouse peritoneal macrophages; experiment: Toxicity to mouse peritoneal macrophages (cell counts, Giemsa); format: cell-based, BALB/c mice; conditions: Peritoneal macrophage, 120 h, non‐cancerous primary cells, up to 5 days, read-out: EC50 towards mouse peritoneal macrophages
[4] = test system: T. brucei over expressing TbNTR (Tbntr++); experiment: microbe, parasite or virus in culture; format: cell-based; conditions: for EC50: Trypanosoma brucei, read-out: EC50 Tbntr++
[5] = test system: T. brucei over expressing TbCPR2 (Tbcpr2++); experiment: microbe, parasite or virus in culture; format: cell-based
RH1^RC1 T. brucei = experiment: microbe, parasite or virus in culture; format: cell-based;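 on ratio (fold difference in EC50 between RH1^RC1 and wild type): resistant clone selected by stepwise exposure to the aziridinyl benzoquinone prodrug in culture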
[6] = test system: T. brucei Tbsnm1 null mutants (ΔTbsnm1); experiment: microbe, parasite or virus in culture; format: cell-based; conditions: for EC50: Trypanosoma brucei, read-out: EC50 ΔTbsnm1
[7] = test system: ΔTbsnm1 Tbcpr2++ T. brucei; format: cell-based
[8] = test system: differentiated THP‐1 cells; conditions: read-out: THP‐1 EC50, ref Voak et al., 2013; cited from earlier work
[9] = Table 3, BSF T. brucei wild type, read-out: EC50 Wild type
[10] = Table 4, wild type T. brucei, read-out: EC50 Control

Which results are given for O=C1C(N2CC2)=C(N2CC2)C(=O)C(N2CC2)=C1N1CC1 [ABQ22]?
T. brucei SI ([1]; Selectivity Index: fold difference in EC50 of THP‐1 line relative to parasite): 1; EC50 ([1]; 72 h, bloodstream form, 3 days, Table 1, activity of some compounds previously reported (Hall et al., 2012), read-out: T. brucei EC50): 148 ± 1 nM; EC50 ([1]; Table 2, parasites expressing wild type levels, read-out: EC50 Control): 138 ± 25 nM; EC50 [1, 9]: 197 ± 31 nM; EC50 [1, 10]: 138 ± 25 nM; T. cruzi SI (T. cruzi epimastigotes): 3; EC50 (T. cruzi epimastigotes): 55 ± 2 nM; L. major SI (L. major promastigotes): 1; EC50 (L. major promastigotes): 218 ± 20 nM; EC50 [2]: 138 ± 25 nM; EC50 [3]: 120 nM; Fold difference in EC50 Tbntr++ relative to control [4]: 148 ± 9 (1.07); EC50 [4]: 148 nM; Fold difference in EC50 Tbcpr2++ relative to control [5]: 20 ± 3 (0.14 ); Susceptibility of TbCPR2 or 3 over expressing lines relative to control cells [5]: hypersensitive; also recorded: sevenfold; EC50 ([5]; Trypanosoma brucei, read-out: EC50 Tbcpr2++): 20 nM; Susceptibility of RH1 selected (RH1^RC) lines relative to wild type (RH1^RC1 T. brucei): equally sensite; ratio (fold difference in EC50 between RH1^RC1 and wild type) (RH1^RC1 T. brucei): 1.2; EC50 (RH1^RC1 T. brucei; Trypanosoma brucei, read-out: EC50 RH1^RC1): 232 ± 27 nM; Ratio of EC50 values ΔTbsnm1 / control [6]: 0.15; Susceptibility of Tbsnm1 null mutants relative to wild type / control (fold more susceptible) [6]: sevenfold; EC50 [6]: 21 ± 5 nM; Fold more sensitive, ΔTbsnm1 Tbcpr2++ versus wild type [7]: 12.5 fold

With CC1CS(=O)(=O)CCN1/N=C/c1ccc([N+](=O)[O-])o1 (stereo not shown) [Nifurtimox, reference compound] as the molecule, how does the EC50 [1, 9] read?
The EC50 was 2700 ± 100 nM.

What about the EC50 [1, 10] of the same molecule?
Its EC50 is 2850 ± 20 nM.

And the EC50 ([1]; read-out: EC50 Control)?
The EC50 was 2980 ± 30 nM.

And the EC50 (T. cruzi epimastigotes)?
The EC50 was 2600 ± 400 nM.

And the EC50 (L. major promastigotes)?
The EC50 was 6280 ± 40 nM.

What about the EC50 [4] of the same molecule?
Its EC50 is 315 nM.

What about the EC50 [6] of the same molecule?
The EC50 was 2250 ± 90 nM.

What about the EC50 [8] of the same molecule?
The EC50 was greater than 100000 nM.
